The record followed here is US20060233935A1, “Rhamnolipids in bakery products” (priority 2002, published 2006).

A short description of this series: Non-dairy cream filling evaluation (Example 16). As to conditions: 0.01% (w/w) in liquid preparation. As for the experimental part: Polysorbate 60 has been replaced by rhamnolipids in non-dairy cream filling for pastries.
The following preparation process was used: The starch is mixed with the water, sugar and glucose syrup are added together with the emulsifier and titanium dioxide. After mixing until homogenous all the other ingredients are added and mixed again. The total mixture is heated until jellification of the starch.
Bake stability (180° C., 30 minutes), color, taste, speed of incorporation of fat into the mixture and possible separation of fat during conservation are evaluated (Table 16).

As to Polysorbate 60, the Stability during conservation entry was “Stable during”.
